Experimental data published in US9457033B2, “Steroid alkaloids and uses thereof as antimicrobial agents against electron transport-deficient microbes and as potentiators for antimicrobial agents against pathogenic bacteria” (priority 2011, dated 2016).
In brackets after ≈: the same amount, converted by molar mass. Where two headings read alike, the source gives them in different places.

Experiments:
S. aureus Newman = experiment: MIC, microdilution in CAMHB 24 h; format: cell-based, Staphylococcus aureus; details: Newman; for MIC: Staphylococcus aureus
[1] = tested on: S. epidermidis ATCC 35984; experiment: MIC, microdilution, with or without tomatidine; details: for MIC: Staphylococcus epidermidis
S. aureus CF4B-L = experiment: MIC, microdilution in CAMHB 24 h; format: cell-based, Staphylococcus aureus; details: CF4B-L; for MIC: Staphylococcus aureus, CF4BL
S. aureus Sa220c = experiment: MIC, microdilution in CAMHB 24 h; format: cell-based, Staphylococcus aureus; details: Sa220c; for MIC: Staphylococcus aureus
S. hominis sho23 = experiment: MIC, microdilution, with or without tomatidine; details: for MIC: Staphylococcus hominis
S. aureus ATCC BAA-41 = experiment: MIC, microdilution in CAMHB 24 h; format: cell-based, Staphylococcus aureus; details: for MIC: Staphylococcus aureus
S. haemolyticus sh022 = experiment: MIC, microdilution, with or without tomatidine; details: for MIC: Staphylococcus haemolyticus
S. haemolyticus sh032 = experiment: MIC, microdilution, with or without tomatidine; details: for MIC: Staphylococcus haemolyticus
[2] = tested on: all tested S. aureus strains; experiment: Average potentiation of aminoglycoside MIC by tomatidine (FIGS. 6, 7); format: cell-based, Staphylococcus aureus; details: tomatidine at 8 μg/ml
[3] = tested on: S. epidermidis ATCC 12228; experiment: MIC, microdilution, with or without tomatidine; details: for MIC: Staphylococcus epidermidis
S. hominis ssp008c = experiment: MIC, microdilution, with or without tomatidine; details: for MIC: Staphylococcus hominis, SSP008C
S. aureus CF7A-L = experiment: MIC, microdilution in CAMHB 24 h; format: cell-based, Staphylococcus aureus; details: CF7A-L; for MIC: Staphylococcus aureus
[4] = 8 μg/ml of tomatidine, read-out: MIC +TO
[5] = absence of tomatidine, read-out: MIC −TO

SMILES: NC[C@H]1O[C@H](O[C@H]2[C@H](O)[C@@H](O[C@H]3O[C@H](CO)[C@@H](O)[C@H](N)[C@H]3O)[C@H](N)C[C@@H]2N)[C@H](N)C[C@@H]1O [Tobramycin, tobramycin]
- Fold (−TO/+TO) (S. aureus Newman; 8 μg/ml of tomatidine): 2-8 fold
- MIC (S. aureus Newman; [4]): 0.06 to 0.12 µg/mL (≈ 0.128 to 0.257 µM)
- MIC (S. aureus Newman; Human (Osteo), read-out: MIC): 0.25 to 0.5 µg/mL (≈ 0.535 to 1.07 µM)
- MIC (S. aureus Newman; [5]): 0.25 to 0.5 µg/mL (≈ 0.535 to 1.07 µM)
- Fold (−TO/+TO) ([1]; S. epidermidis ATCC 35984, 8 μg/ml of tomatidine): 8 fold
- MIC ([1]; ATCC35984, read-out: MIC +TO): 2 µg/mL (≈ 4.28 µM)
- MIC ([1]; ATCC35984, read-out: MIC −TO): 16 µg/mL (≈ 34.2 µM)
- Fold (−TO/+TO) (S. aureus CF4B-L; 8 μg/ml of tomatidine): 4-16 fold
- MIC (S. aureus CF4B-L; [4]): 0.06 to 0.12 µg/mL (≈ 0.128 to 0.257 µM)
- MIC (S. aureus CF4B-L; Human (CF lungs), read-out: MIC): 0.5 to 1 µg/mL (≈ 1.07 to 2.14 µM)
- MIC (S. aureus CF4B-L; [5]): 0.5 to 1 µg/mL (≈ 1.07 to 2.14 µM)
- Fold (−TO/+TO) (S. aureus Sa220c; 8 μg/ml of tomatidine): 4-16 fold
- MIC (S. aureus Sa220c; [4]): 0.06 to 0.12 µg/mL (≈ 0.128 to 0.257 µM)
- MIC (S. aureus Sa220c; Human (SSTI), MRSA, read-out: MIC): 0.5 to 1 µg/mL (≈ 1.07 to 2.14 µM)
- MIC (S. aureus Sa220c; [5]): 0.5 to 1 µg/mL (≈ 1.07 to 2.14 µM)
- Fold (−TO/+TO) (S. hominis sho23; S. hominis sho23, 8 μg/ml of tomatidine): 4 fold
- MIC (S. hominis sho23; SHO23, read-out: MIC +TO): 1 µg/mL (≈ 2.14 µM)
- MIC (S. hominis sho23; SHO23, read-out: MIC −TO): 4 µg/mL (≈ 8.56 µM)
- Fold (−TO/+TO) (S. aureus ATCC BAA-41; ATCC BAA-41, 8 μg/ml of tomatidine): 4 fold
- MIC (S. aureus ATCC BAA-41; ATCC BAA-41 / MRSA, ATCC BAA-41, Human (HA), MRSA, read-out: MIC): 512 µg/mL (≈ 1100 µM)
- MIC (S. aureus ATCC BAA-41; ATCCBAA41, ATCC BAA-41, ant(4′)-Ia, 8 μg/ml of tomatidine, read-out: MIC +TO): 128 µg/mL (≈ 274 µM)
- MIC (S. aureus ATCC BAA-41; ATCCBAA41, ATCC BAA-41, ant(4′)-Ia, absence of tomatidine, read-out: MIC −TO): 512 µg/mL (≈ 1100 µM)
- Fold (−TO/+TO) (S. haemolyticus sh022; S. haemolyticus sh022, 8 μg/ml of tomatidine): 8 fold
- MIC (S. haemolyticus sh022; SH022, read-out: MIC +TO): 4 µg/mL (≈ 8.56 µM)
- MIC (S. haemolyticus sh022; SH022, read-out: MIC −TO): 32 µg/mL (≈ 68.4 µM)
- Fold (−TO/+TO) (S. haemolyticus sh032; S. haemolyticus sh032, 8 μg/ml of tomatidine): 16 fold
- MIC (S. haemolyticus sh032; SH032, read-out: MIC +TO): 2 µg/mL (≈ 4.28 µM)
- MIC (S. haemolyticus sh032; SH032, read-out: MIC −TO): 32 µg/mL (≈ 68.4 µM)
- average increase of antibacterial activity [2]: 8±3 fold
- Fold (−TO/+TO) ([3]; S. epidermidis ATCC 12228, 8 μg/ml of tomatidine): 2 fold
- MIC ([3]; ATCC12228, read-out: MIC +TO): 0.06 µg/mL (≈ 0.128 µM)
- MIC ([3]; ATCC12228, read-out: MIC −TO): 0.12 µg/mL (≈ 0.257 µM)
- Fold (−TO/+TO) (S. hominis ssp008c; S. hominis ssp008c, 8 μg/ml of tomatidine): 4 fold
- MIC (S. hominis ssp008c; read-out: MIC +TO): 8 µg/mL (≈ 17.1 µM)
- MIC (S. hominis ssp008c; read-out: MIC −TO): 32 µg/mL (≈ 68.4 µM)
- Fold (−TO/+TO) (S. aureus CF7A-L; 8 μg/ml of tomatidine): 2-8 fold
- MIC (S. aureus CF7A-L; CF7AL, ant(4′)-Ia, 8 μg/ml of tomatidine, read-out: MIC +TO): 128 to 512 µg/mL (≈ 274 to 1100 µM)
- MIC (S. aureus CF7A-L; CF7AL, ant(4′)-Ia, absence of tomatidine, read-out: MIC −TO): 1020 µg/mL (≈ 2190 µM)
- MIC (S. aureus CF7A-L; Human (CF lungs), MRSA, read-out: MIC): 1020 µg/mL (≈ 2190 µM)
